Holding throughout (format): biochemical
Assay [1] deals with T1, hSARM1 SAM-TIR (Homo sapiens, UniProt Q6SZW1).
T1 construct: made in house
T1 sequence (Q6SZW1 409-724): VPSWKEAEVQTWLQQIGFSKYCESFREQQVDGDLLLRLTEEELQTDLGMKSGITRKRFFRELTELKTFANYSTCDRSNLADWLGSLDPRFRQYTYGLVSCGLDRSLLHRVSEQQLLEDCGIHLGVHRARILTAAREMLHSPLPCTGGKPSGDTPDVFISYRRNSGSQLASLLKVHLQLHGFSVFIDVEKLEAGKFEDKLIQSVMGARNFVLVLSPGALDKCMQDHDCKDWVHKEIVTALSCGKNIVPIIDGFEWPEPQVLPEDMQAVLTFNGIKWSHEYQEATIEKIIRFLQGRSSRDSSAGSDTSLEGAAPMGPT
As to the kind of experiment: NADase inhibition by pyridine ribosides, IC50 and inhibition kinetics (HPLC). Particulars: for IC50: NAD […], preliminary; for Ki: variable NAD 15-600 μM. The method, then: (§1) hSARM1 species were routinely assayed by the NAD/NADH-Glo^TM Assay (Promega) while both Aplysia cyclase and CD38 were assayed by fluorometry using ϵNAD ([Orsomando et al., 2000]). […] Other reagents used in addition to, or in place of those above are detailed in text or in figure legends, for example metal ions, free bases, dinucleotide analogues, mononucleotides, and ribosides. Assays were all carried out at 25°C except for temperature studies. Reactions were stopped by HClO4/K2CO3 and analysed by C18-HPLC as reported ([Mori et al., 2014]). Only the acid labile NADH and NADPH were treated with 1 N NaOH and neutralized using 1:1 vol of 1.73 M KH2CO3 while the highly hydrophobic metabolites vacor, VAD, VMN and VR, were analysed by a modified C18-HPLC method ([Buonvicino et al., 2018]). Reaction products were quantified from peak areas (see Figure 2A) based on coelution with standards (except for cyclic products from NAD analogues that were not available and were attributed based on UV-spectra and retention times as predicted). Rates were calculated as follows. Hydrolysis and cyclization were measured from product generation from the respective individual dinucleotide substrate used, e.g., free and cyclic ADP-ribosyl moieties from NAD (Figure 1B). A basal value for hydrolysis/cyclization was taken as sum of these latter two products. In addition to that value, base exchange or transglycosidation was calculated from the expected dinucleotide analog formed in the presence of the corresponding free base, e.g., AcPyrAD from AcPyr and NAD.
(§2) Inhibition by ribosides was assayed by HPLC initially at fixed 200 μM of each NR, NaR or VR and optimized NAD concentrations for the different enzymes (see Figure 6 legend).

In assay [2] the target is T2, hSARM1 full length (Homo sapiens, UniProt Q6SZW1).
T2 construct: Human recombinant SARM1 full length proteins (wild-type and E642A mutant); made in house
T2 sequence (Q6SZW1 28-724): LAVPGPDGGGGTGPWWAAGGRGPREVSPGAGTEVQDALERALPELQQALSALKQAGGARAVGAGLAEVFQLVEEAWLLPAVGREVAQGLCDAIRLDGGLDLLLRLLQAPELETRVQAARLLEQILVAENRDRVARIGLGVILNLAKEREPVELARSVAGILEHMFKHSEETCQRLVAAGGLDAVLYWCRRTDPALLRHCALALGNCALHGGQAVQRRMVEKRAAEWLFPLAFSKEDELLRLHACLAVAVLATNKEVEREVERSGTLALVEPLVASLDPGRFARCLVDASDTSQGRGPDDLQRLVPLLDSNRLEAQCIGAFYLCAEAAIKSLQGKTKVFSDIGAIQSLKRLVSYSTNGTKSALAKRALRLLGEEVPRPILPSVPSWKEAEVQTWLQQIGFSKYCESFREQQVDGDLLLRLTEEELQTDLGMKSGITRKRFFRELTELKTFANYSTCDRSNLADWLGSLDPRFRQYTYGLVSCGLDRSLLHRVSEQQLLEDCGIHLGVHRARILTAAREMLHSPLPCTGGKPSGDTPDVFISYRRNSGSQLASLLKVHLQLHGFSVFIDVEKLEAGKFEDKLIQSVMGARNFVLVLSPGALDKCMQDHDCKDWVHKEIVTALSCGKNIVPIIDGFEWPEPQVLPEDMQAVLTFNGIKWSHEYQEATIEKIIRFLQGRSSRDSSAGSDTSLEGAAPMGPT
As to the kind of experiment: NADase inhibition by pyridine ribosides (HPLC). The conditions noted are these: for IC50: hSARM1 full length, saturating NAD ([…]), preliminary; for NADase inhibition (in words): hSARM1, riboside fixed at 200 μM, NAD […]. As for the experimental part:
as §1, with “NAD. The measured level of overall formed products matched in all cases the dinucleotide substrate consumed and the corresponding pyridine base released, according to the reaction scheme (Figure 1B). Furthermore, enzyme amounts forming 1 μmol/min of overall products above were referred to as single units (U) of activity and initial rates were always considered, for example until a maximum of 20% of the original substrate had been consumed and all products were still accumulating at a nearly linear rate.” for “NAD.”
as §2

In assay [3] the target is T1, hSARM1 SAM-TIR. As to the kind of experiment: Base exchange reactions at neutral pH (HPLC). As for the experimental part:
(§3) Multiple time stops from individual assays as above were analyzed for linearity, then extents of hydrolysis (white bars), cyclization (red bars), or base exchange (black bars) were calculated from each corresponding product as shown in Figure 1B and STAR methods. […] See also Figures S3–S5, and Table S1
(§4) Rates were calculated as follows.

The target of assay [4] is T3, Aplysia californica ADP ribosyl cyclase (Aplysia californica, UniProt P29241).
T3 sequence (P29241 25-282): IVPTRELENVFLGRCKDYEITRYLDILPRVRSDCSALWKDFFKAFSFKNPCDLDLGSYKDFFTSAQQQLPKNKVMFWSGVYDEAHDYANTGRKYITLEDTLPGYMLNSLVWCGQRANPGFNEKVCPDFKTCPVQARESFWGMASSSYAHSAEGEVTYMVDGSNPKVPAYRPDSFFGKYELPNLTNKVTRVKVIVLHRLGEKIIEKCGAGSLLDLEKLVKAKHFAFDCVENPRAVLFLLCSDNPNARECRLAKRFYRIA
Description: Base exchange reactions at neutral pH (HPLC). Details: purchased Merck A8950. The method, then: as §3, §4

A further assay has as its target T4, hCD38 (Homo sapiens, UniProt P28907).
T4 construct: a soluble fragment Val43-Ile300 with 6x-His tag at C terminus; 6xHis (C); purchased R&D Systems
T4 sequence (P28907 43-300): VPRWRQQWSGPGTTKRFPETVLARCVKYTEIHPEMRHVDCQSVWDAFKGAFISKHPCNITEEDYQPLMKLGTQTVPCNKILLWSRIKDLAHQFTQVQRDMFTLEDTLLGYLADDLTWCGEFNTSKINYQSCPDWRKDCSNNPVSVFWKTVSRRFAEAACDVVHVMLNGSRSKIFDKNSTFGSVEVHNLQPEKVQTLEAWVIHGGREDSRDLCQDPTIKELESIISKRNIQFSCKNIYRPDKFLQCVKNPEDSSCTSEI
Description: Base exchange reactions at neutral pH (HPLC). The method, then:
as §3, §1

For assay [5], the target named is T2, hSARM1 full length. Description: Base exchange reactions at neutral pH (HPLC). The method, then:
as §3, §1

Where [6] appears, read: NAD […] alone or + AcPyr 2 mM / Vacor 0.5 mM / Na 2 mM.
Setting [7] is: NADP […] alone or + AcPyr 2 mM / Vacor 0.5 mM / Na 2 mM.
Where [8] appears, read: hSARM1 full length +NMN 0.2 mM, NAD […].
Where [9] appears, read: hSARM1 full length +NMN 0.2 mM, NADP […].
Setting [10] is: hSARM1 full length +VMN 0.05 mM, NAD […].
The mark [11] stands for this setting: hSARM1 full length +VMN 0.05 mM, NADP […].

Usually IC50 stands for the point on the concentration scale where inhibition reaches its midpoint. Read a low IC50 as higher potency. As a reminder, the Ki is the equilibrium dissociation constant of an inhibitor or competing ligand from its target.

With `O=C([O-])c1ccc[n+]([C@@H]2O[C@H](CO)[C@@H](O)[C@H]2O)c1` [NaR, nicotinic acid riboside], on hSARM1 SAM-TIR [1], the inhibition type result is “mixed-type inhibition”, 36 µM corresponded to half-maximal inhibition (IC50) and the Ki was 15 µM. In addition, the midpoint of inhibition against hSARM1 full length [2], the IC50, lay at 87 µM.

Consider `O=C(O)c1cccnc1` [Na, nicotinic acid], for which the rate was found to be 315.2 ±69.6 mU/mg on hSARM1 SAM-TIR [3] (setting [6]); 242.0 ±37.3 mU/mg on hSARM1 SAM-TIR [3] (setting [7]); 14595 ±3147 mU/mg in assay [4] (setting [6]); 9872 ±1846 mU/mg in assay [4] (setting [7]); 7934 ±1182 mU/mg on hCD38 (setting [6]); 3189 ±622 mU/mg on hCD38 (setting [7]). Moreover, the rate at hSARM1 full length [5] (hSARM1 full length +NMN 0.2 mM, NAD […] alone or + free base) was 201.5 ±27.9 mU/mg; on hSARM1 full length [5] (hSARM1 full length +NMN 0.2 mM, NADP […] alone or + free base), 131.9 ±10.5 mU/mg; on hSARM1 full length [5] (hSARM1 full length +VMN 0.05 mM, NAD […] alone or + free base), 199.0 ±17.6 mU/mg; at hSARM1 full length [5] (hSARM1 full length +VMN 0.05 mM, NADP […] alone or + free base) it was 147.6 ±4.76 mU/mg; at hSARM1 full length [5] (hSARM1 full length, no trigger, NAD […] alone or + AcPyr 2 mM / Vacor 0.5 mM / Na 2 mM, pH 7.5), 23.3 ±0.83 mU/mg; at hSARM1 full length [5] (hSARM1 full length, no trigger, NADP […] alone or + AcPyr 2 mM / Vacor 0.5 mM / Na 2 mM, pH 7.5), 17.3 ±0.54 mU/mg. For the same molecule, the “base exchange, share of products” value stood at 1.58% at hSARM1 full length [5] (setting [8]), 1.48% at hSARM1 full length [5] (setting [9]), 1.68% on hSARM1 full length [5] (setting [10]) and 1.28% at hSARM1 full length [5] (setting [11]). The “cyclization, share of products” value at hSARM1 full length [5] (setting [8]) is listed as 8.35%; on hSARM1 full length [5] (setting [9]), ~ 0.05%; at hSARM1 full length [5] (setting [10]) it was 6.44%; at hSARM1 full length [5] (setting [11]) it was 0.69%. Also, the “hydrolysis, share of products” value on hSARM1 full length [5] (setting [8]) turned out to be 90.07%; on hSARM1 full length [5] (setting [9]), 98.47%; on hSARM1 full length [5] (setting [10]), 91.88%; at hSARM1 full length [5] (setting [11]), 98.03%. The “rate (relative fold)” value amounted to 9.23 ±1.28 fold on hSARM1 full length [5] (hSARM1 full length +NMN 0.2 mM, NAD […], relative to NAD alone without trigger); 8.98 ±0.711 fold on hSARM1 full length [5] (hSARM1 full length +NMN 0.2 mM, NADP […], relative to NADP alone without trigger); 9.12 ±0.805 fold on hSARM1 full length [5] (hSARM1 full length +VMN 0.05 mM, NAD […], relative to NAD alone without trigger); 10.04 ±0.324 fold at hSARM1 full length [5] (hSARM1 full length +VMN 0.05 mM, NADP […], relative to NADP alone without trigger). For the same molecule, the “base exchange products VAD(P) or NaAD(P), share of total products” value at hSARM1 full length [5] (hSARM1 full length, NAD or NADP 250 μM, vacor 0.5 mM, Na 2 mM) was 2%–3%.

For `O=C(NCc1ccc[n+]([C@@H]2O[C@H](CO)[C@@H](O)[C@H]2O)c1)Nc1ccc([N+](=O)[O-])cc1` [VR, vacor riboside], on hSARM1 SAM-TIR [1], the inhibition type result was “mixed-type inhibition”, the IC50 was found to be 61 µM and the Ki came out at 25.9 µM. At hSARM1 full length [2], the “NADase inhibition (in words)” value was “strongly inhibited” and the IC50 was found to be 154 µM.

Consider `NC(=O)c1ccc[n+]([C@@H]2O[C@H](CO)[C@@H](O)[C@H]2O)c1` [NR, nicotinamide riboside], for which the “NADase inhibition (in words)” value on hSARM1 full length [2] was “inactive”.

The values are drawn from paper PMC8844822, “SARM1 is a multi-functional NAD(P)ase with prominent base exchange activity, all regulated bymultiple physiologically relevant NAD metabolites” (iScience, 2022).
